Data as given in patent US20160067246A1, “USE OF PHOSPHODIESTERASE 5A INHIBITORS FOR THE TREATMENT OF MUSCULAR DYSTROPHY” (CEDARS-SINAI MEDICAL CENTER, priority 2013, published 2016).

Tests used:
Assay type in all cases: in vivo, human
[1] = tested on: boys with Duchenne muscular dystrophy (DMD); assay: Functional sympatholysis (LBNP, NIR spectroscopy, rest vs handgrip) with PDE5 inhibition in DMD; conditions: for effect of chronic background medication on functional sympatholysis / functional ischemia in DMD: boys with DMD on chronic glucocorticoid or prophylactic cardiac treatment; for LBNP-induced ΔHbO2+MbO2 (% TLS) at rest / LBNP-induced ΔHbO2+MbO2 (% TLS) during handgrip: DMD, analysis using all 12 boys
Experimental: Forearm muscle oxygenation was measured with near-infrared (NIR) spectroscopy, as previously described.^4B Briefly, optodes were placed over the belly of the flexor digitorum profundus, the main muscle recruited during handgrip. The optodes were housed in a customized flexible rubber casing, ensuring a fixed and invariant position of the optodes relative to each other, and was secured to the skin with adhesive. The optodes were covered with an optically dense, black vinyl sheet, to minimize interference from external light or loss of NIR transmitted light. The forearm was wrapped with an elastic bandage to minimize movement of the optodes.
Before each experiment, absorption and scattering coefficients were calibrated against an external standard. After each experiment, a cuff was inflated on the upper arm to supra-systolic pressure of 200 mmHg to establish the total labile signal (TLS, the difference between the baseline and nadir in muscle tissue oxygenation). Changes in forearm tissue oxygenation were expressed as a percentage of TLS.
Handgrip exercise was performed with a dynamometer (Smedley Hand Dynamometer modified by Stoelting). To determine maximal voluntary contraction (MVC), each subject was asked to grip the dynamometer as hard as possible. […] Subjects performed intermittent isometric handgrip (20 handgrips per minute, 50% duty cycle) at 20% MVC for 7 minutes.
The subjects lower body was enclosed in a negative pressure chamber to the level of the iliac crest as previously described.^9B The pressure of the chamber was measured by a Statham transducer (Gould Inc.). Lower body negative pressure (LBNP) at −20 mmHg simulates mild orthostatic stress (that is, transition from the supine to the seated position). This technique mainly unloads the cardiopulmonary baroreceptors, producing highly reproducible reflex increases in sympathetic vasoconstrictor drive to the skeletal muscle vasculature without changing systemic blood pressure.^9B
The subjects' lower body was enclosed in a negative pressure chamber to the level of the iliac crest as previously described. The pressure in the chamber was measured by a Statham transducer (Gould Inc.). Lower body negative pressure (LBNP) at −20 to −30 mmHg simulates mild orthostatic stress caused by transition from the supine to the seated position. This technique mainly unloads the low-pressure cardiopulmonary baroreceptors, producing highly reproducible reflex increases in sympathetic vasoconstrictor drive to the skeletal muscle vasculature without changing systemic blood pressure. To measure exercise-induced attenuation of reflex vasoconstriction (i.e., functional sympatholysis), the LBNP was (i) applied at rest, and then (ii) superimposed on mild rhythmic handgrip at 20% MVC. Reflex vasoconstriction was measured as the LBNP-induced decrease in forearm muscle oxygenation by NIR spectroscopy. Using the pressure inside the LBNP chamber as a trigger, the Powerlab software was programed to mean the HbO2+MbO2 signal for 20 seconds before the onset of LBNP and for 20 seconds before the offset of LBNP; the difference between these mean values was taken as the LBNP-induced change in forearm muscle tissue oxygenation (20). Blood pressure, heart rate, and handgrip force were also recorded in response to 2 minutes of LBNP applied at rest and during the third to fifth minutes of the 7-minute exercise protocol.
Patients received 0.5 mg/kg of oral sildenafil or tadalafil on day 1, followed by 1.0 mg/kg of sildenafil or tadalafil on day 2. Patients then crossed over 2 weeks later for the opposite drug. Experiments were performed 1 hour (sildenafil) or 3 hours (tadalafil) after oral treatment to match the experiment with the peak blood level. Patients were queried about potential side-effects throughout the study visit. […]

[2] = tested on: boys with Duchenne muscular dystrophy (DMD); assay: Exercise-induced hyperemia: brachial artery blood flow by Doppler ultrasound and hemodynamics, rest and post handgrip; design: key to BA velocity: mean blood velocity in cm/s; Heart rate: unit not given here
Experimental: Subjects were studied in the supine position. Heart rate was measured continuously by electrocardiography, and blood pressure measured by automated oscillometric sphygomanometry using a child's cuff ([…] Monitor 300 Series). Brachial artery mean blood velocity (MBV) was measured from the exercising arm using pulsed-Doppler ultrasonography (Siemens iE33). Data were acquired continuously with a 9-MHz probe with a 60° angle of insonation, placed on the skin surface distal to the axilla. The ultrasound gate was optimized to ensure complete insonation of the entire vessel cross-section with constant intensity. The Doppler audio signal was converted to a real-time flow velocity signal using a validated Doppler audio converter,^8B and recorded using a PowerLab data acquisition system (ADInstruments, CO). Brachial artery diameter was measured by B-mode imaging in triplicate at rest. […] Brachial artery blood flow was calculated as MBV (cm/s)·πr^2·60, where r is radius of the brachial artery. […] exercise was performed with a dynamometer ([…] Dynamometer modified by Stoelting). To determine maximal voluntary contraction (MVC), each subject was asked to grip the dynamometer as hard as possible. […] Vascular conductance was calculated as forearm blood flow divided by mean arterial pressure. […] Patients then crossed over 2 weeks later for the opposite drug. […] Patients were queried about potential side-effects throughout the study visit. Baseline characteristics of patients and controls were compared using Student's t test. Exercise-induced attenuation of reflex vasoconstriction (functional sympatholysis) was assessed by comparing the LBNP-induced AHbO2+MbO2 (% TLS) at rest versus the LBNP-induced decrease in ΔHbO2+MbO2 during handgrip. Group differences in ΔHbO2+MbO2 were assessed using a Student's t test. The drug treatment effect on LBNP-induced Δ·HbO2+MbO2 (% TLS) at rest versus the LBNP-induced decrease in ΔHbO2+MbO2 during handgrip was compared to baseline for each patient using a Student's t test. The group difference in the % Δ in brachial artery blood flow was assessed using a student's t test. The drug treatment effect on the % Δ in brachial artery blood flow was compared using a student's t test. All analyses were performed in SigmaPlot. Data are expressed as mean±SEM, unless otherwise specified.

[3] = Pharmacokinetic study and drug blood levels in boys with DMD; conditions: male, human, in vivo
Experimental: Serum blood samples for pharmacokinetic determinations were collected from patients at time 0-hr, 0.25-hr, 0.5-hr, 1-hr, 2-hr, 4-hr, 8-hr, and 24-hr following each treatment (sildenafil and tadalafil) and each dose (0.5 vs. 1.0 mg/kg). Blood levels were measured with high-performance liquid chromatography-tandem mass spectrometry (NMS Labs).
Patients received 0.5 mg/kg of oral sildenafil or tadalafil on day 1, followed by 1.0 mg/kg of sildenafil or tadalafil on day 2. Patients then crossed over 2 weeks later for the opposite drug. Experiments were performed 1 hour (sildenafil) or 3 hours (tadalafil) after oral treatment to match the experiment with the peak blood level. Patients were queried about potential side-effects throughout the study visit.

Question: With `CC(=O)OCC(=O)[C@@]12N=C(C)O[C@@H]1C[C@H]1[C@@H]3CCC4=CC(=O)C=C[C@]4(C)[C@H]3[C@@H](O)C[C@@]12C` [deflazacort] as the molecule, how does the “effect of chronic background medication on functional sympatholysis / functional ischemia in DMD” value [1] read?
Answer: The value was “neither prednisone nor deflazacort protects dystrophic muscle from functional ischemia”.

Question: For `NCCCC[C@H](N[C@@H](CCc1ccccc1)C(=O)O)C(=O)N1CCC[C@H]1C(=O)O` [lisinopril], which “effect of chronic background medication on functional sympatholysis / functional ischemia in DMD” value [1] is on record?
Answer: Its value is “does not rescue functional sympatholysis”.

Question: Which “effect of chronic background medication on functional sympatholysis / functional ischemia in DMD” value [1] does the source give for `CCCCc1nc(Cl)c(CO)n1Cc1ccc(-c2ccccc2-c2nn[nH]n2)cc1` [losartan] here?
Answer: The value was “does not rescue functional sympatholysis”.

Question: For `C[C@]12C=CC(=O)C=C1CC[C@@H]1[C@@H]2C(=O)C[C@@]2(C)[C@H]1CC[C@]2(O)C(=O)CO` [prednisone], which “effect of chronic background medication on functional sympatholysis / functional ischemia in DMD” value [1] is on record?
Answer: Its value is “neither prednisone nor deflazacort protects dystrophic muscle from functional ischemia”.

Question: Which results are given for `CCCc1nn(C)c2c(=O)[nH]c(-c3cc(S(=O)(=O)N4CCN(C)CC4)ccc3OCC)nc12` [sildenafil]?
Answer: restoration of functional sympatholysis in DMD (in words) ([1]; 6 patients with DMD, 0.5 and 1.0 mg/kg): equally restores functional sympatholysis; LBNP-induced ΔHbO2+MbO2 (% TLS) at rest ([1]; 0.5 mg/kg oral): −18±4%; LBNP-induced ΔHbO2+MbO2 (% TLS) during handgrip ([1]; 0.5 mg/kg oral): −10±3%; LBNP-induced ΔHbO2+MbO2 (% TLS) at rest ([1]; 1.0 mg/kg oral): −20±3%; LBNP-induced ΔHbO2+MbO2 (% TLS) during handgrip ([1]; 1.0 mg/kg oral): −1±3%; BA VC (vascular conductance) ([2]; 0.5 mg/kg, Post-exercise): 2.3 ± 0.3 ml/min/mmHg; BA blood flow ([2]; 0.5 mg/kg, Post-exercise): 172 ± 18 mL/min; BA velocity ([2]; 0.5 mg/kg, Post-exercise): 32 ± 3; Heart rate ([2]; 0.5 mg/kg, Post-exercise): 88 ± 6; MAP ([2]; 0.5 mg/kg, Post-exercise): 75 ± 2 mmHg; BA VC (vascular conductance) ([2]; 0.5 mg/kg, Rest): 1.7 ± 0.3 ml/min/mmHg; BA blood flow ([2]; 0.5 mg/kg, Rest): 125 ± 19 mL/min; BA velocity ([2]; 0.5 mg/kg, Rest): 24 ± 4; Heart rate ([2]; 0.5 mg/kg, Rest): 84 ± 5; MAP ([2]; 0.5 mg/kg, Rest): 77 ± 6 mmHg; BA VC (vascular conductance) ([2]; 1.0 mg/kg, Post-exercise): 2.7 ± 0.3 ml/min/mmHg; BA blood flow ([2]; 1.0 mg/kg, Post-exercise): 196 ± 22 mL/min; BA velocity ([2]; 1.0 mg/kg, Post-exercise): 37 ± 3; Heart rate ([2]; 1.0 mg/kg, Post-exercise): 93 ± 5; MAP ([2]; 1.0 mg/kg, Post-exercise): 74 ± 2 mmHg; BA VC (vascular conductance) ([2]; 1.0 mg/kg, Rest): 1.9 ± 0.3 ml/min/mmHg; BA blood flow ([2]; 1.0 mg/kg, Rest): 137 ± 21 mL/min; BA velocity ([2]; 1.0 mg/kg, Rest): 27 ± 5; Heart rate ([2]; 1.0 mg/kg, Rest): 92 ± 5; MAP ([2]; 1.0 mg/kg, Rest): 74 ± 2 mmHg; half-life ([3]; 0.5 mg/kg): 2.4 ± 0.09 h; half-life ([3]; 1 mg/kg): 3.2 ± 0.5 h; time after ingestion at which blood level had returned close to baseline ([3]; po): 4 h; peak blood level ([3]; po, 0.5 mg/kg): 82.5 ± 26.6 ng/mL; peak blood level ([3]; po, 1 mg/kg): 167.5 ± 34.1 ng/mL
